This passage reports T/C results from PubChem BioAssay AID328 (DTP/NCI, 2004).

Values joined by “and” are separate entries in the source; they are usually repeats but may differ in a detail not shown here. Equal values may be shown once. Toxic doses and inconclusive results are not listed.

This assay concerns BDF1 mice, P388 leukemia ip, median survival T/C. In words: NCI In Vivo Anticancer Drug Screen. Data for tumor model P388 Leukemia (intraperitoneal) in B6D2F1 (BDF1) mice. Particulars: endpoint: median survival time, higher = longer survival. In short, it runs like this:
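Transplantable tumour in mice; compound vs vehicle dosing; survival scored; ratio of treated to control reported.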

The mark [1] stands for this setting: dose: 50.0 mg/kg/injection, schedule: Q04DX003 (ip), vehicle: saline.
[2] abbreviates: dose: 100.0 mg/kg/injection, schedule: Q01DX009 (ip), vehicle: Klucel (hydroxypropylcellulose) (HPC).
The mark [3] stands for this setting: dose: 100.0 mg/kg/injection, schedule: Q04DX003 (ip), vehicle: Klucel (hydroxypropylcellulose) (HPC).
The mark [4] stands for this setting: dose: 200.0 mg/kg/injection, schedule: Q01DX009 (ip), vehicle: Klucel (hydroxypropylcellulose) (HPC).
Where [5] appears, read: dose: 200.0 mg/kg/injection, schedule: Q04DX003 (ip), vehicle: Klucel (hydroxypropylcellulose) (HPC).
Setting [6] is: dose: 400.0 mg/kg/injection, schedule: Q04DX003 (ip), vehicle: Klucel (hydroxypropylcellulose) (HPC).
Where [7] appears, read: dose: 50.0 mg/kg/injection, schedule: Q01DX009 (ip), vehicle: saline.
Setting [8] is: dose: 100.0 mg/kg/injection, schedule: Q01DX009 (ip), vehicle: saline.
Where [9] appears, read: dose: 50.0 mg/kg/injection, schedule: Q01DX005 (ip), vehicle: saline with Tween-80.
[10] abbreviates: dose: 100.0 mg/kg/injection, schedule: Q01DX005 (ip), vehicle: saline with Tween-80.
[11] abbreviates: dose: 200.0 mg/kg/injection, schedule: Q01DX005 (ip), vehicle: saline with Tween-80.
Where [12] appears, read: dose: 50.0 mg/kg/injection, schedule: Q01DX009 (ip), vehicle: saline with Tween-80.
The mark [13] stands for this setting: dose: 100.0 mg/kg/injection, schedule: Q01DX009 (ip), vehicle: saline with Tween-80.
The mark [14] stands for this setting: dose: 200.0 mg/kg/injection, schedule: Q01DX009 (ip), vehicle: saline with Tween-80.
The mark [15] stands for this setting: dose: 50.0 mg/kg/injection, schedule: Q01DX009 (ip), vehicle: Klucel (hydroxypropylcellulose) (HPC).

As to `Oc1ccccc1OB(Oc1ccccc1O)N(CCCl)CCCl`, the T/C (dose: 8.1 mg/kg/injection, schedule: Q01DX009 (ip), vehicle: Klucel (hydroxypropylcellulose) (HPC)) was 122 % of control; the T/C (dose: 16.5 mg/kg/injection, schedule: Q04DX003 (ip), vehicle: saline) is 86 % of control; the T/C (dose: 18.5 mg/kg/injection, schedule: Q01DX009 (ip), vehicle: Klucel (hydroxypropylcellulose) (HPC)) is 170 % of control; the T/C (dose: 24.75 mg/kg/injection, schedule: Q04DX003 (ip), vehicle: saline) was 150 % of control; the T/C (dose: 28.12 mg/kg/injection, schedule: Q01DX009 (ip), vehicle: Klucel (hydroxypropylcellulose) (HPC)) is 190 % of control and 195 % of control; the T/C (dose: 40.0 mg/kg/injection, schedule: Q01DX009 (ip), vehicle: Klucel (hydroxypropylcellulose) (HPC)) was 165 % of control. The T/C is, setting by setting: (dose: 49.5 mg/kg/injection, schedule: Q04DX003 (ip), vehicle: saline) 150 % of control; under setting [1], 119 % of control.

Consider `CC12CCC3c4ccccc4CCC3(CO1)C2` (centres undefined), for which the T/C by setting is: under setting [2], 100 % of control; under setting [3], 104 % of control; under setting [4], 100 % of control; under setting [5], 108 % of control; (dose: 400.0 mg/kg/injection, schedule: Q01DX009 (ip), vehicle: Klucel (hydroxypropylcellulose) (HPC)) 100 % of control; under setting [6], 100 % of control.

As for `NC(N)=NCCCCCC(=O)Oc1ccc([N+](=O)[O-])cc1`, the T/C is, setting by setting: under setting [7], 96 % of control; under setting [1], 90 % of control and 91 % of control; under setting [8], 99 % of control; (dose: 100.0 mg/kg/injection, schedule: Q04DX003 (ip), vehicle: saline) 87 % of control and 90 % of control; (dose: 200.0 mg/kg/injection, schedule: Q01DX009 (ip), vehicle: saline) 115 % of control; (dose: 200.0 mg/kg/injection, schedule: Q04DX003 (ip), vehicle: saline) 91 % of control and 100 % of control.

`CN(C)Cc1ccc(-c2cc3onc(-c4ccccc4)c3c(=O)n2C)cc1`: the T/C is, setting by setting: under setting [9], 108 % of control; under setting [10], 94 % of control; under setting [11], 97 % of control.

For `COc1cc(Nc2ncnc(N)c2[N+](=O)[O-])cc(OC)c1OC`, the T/C by setting is: (dose: 100.0 mg/kg/injection, schedule: Q01DX001 (ip), vehicle: saline with Tween-80) 87 % of control; (dose: 400.0 mg/kg/injection, schedule: Q01DX001 (ip), vehicle: saline with Tween-80) 87 % of control.

For the compound `CCC1CCCCN1C` (centres undefined), the T/C is 100 % of control (dose: 12.5 mg/kg/injection, schedule: Q04DX003 (ip), vehicle: saline); 90 % of control (dose: 25.0 mg/kg/injection, schedule: Q04DX003 (ip), vehicle: saline); 90 % of control under setting [1].

For the compound `CCCCCCCCC(O)CCCC` (centres undefined), the T/C by setting is: under setting [3], 91 % of control; under setting [5], 91 % of control; under setting [6], 100 % of control.

As to `Nc1ccc(Cl)c(Cl)c1`, the T/C under setting [12] is 98 % of control; the T/C under setting [7] is 106 % of control; the T/C under setting [13] was 104 % of control; the T/C under setting [8] is 118 % of control; the T/C under setting [14] was 104 % of control.

As for `O=c1c[n+](-c2ccccc2)[nH]o1`, the T/C runs as follows: under setting [2], 115 % of control; under setting [4], 90 % of control.

For `N#Cc1ccc(-c2ccc(C#N)cc2Br)c(Br)c1`, the T/C is, setting by setting: (dose: 22.0 mg/kg/injection, schedule: Q01DX009 (ip), vehicle: Klucel (hydroxypropylcellulose) (HPC)) 92 % of control; (dose: 25.0 mg/kg/injection, schedule: Q01DX009 (ip), vehicle: Klucel (hydroxypropylcellulose) (HPC)) 110 % of control; (dose: 33.0 mg/kg/injection, schedule: Q01DX009 (ip), vehicle: Klucel (hydroxypropylcellulose) (HPC)) 95 % of control; under setting [15], 100 % of control; (dose: 75.0 mg/kg/injection, schedule: Q01DX009 (ip), vehicle: Klucel (hydroxypropylcellulose) (HPC)) 89 % of control; under setting [2], 88 % of control and 110 % of control. Moreover, the T/C runs as follows: under setting [3], 95 % of control; under setting [5], 100 % of control; under setting [6], 100 % of control.

Consider `CC1(C#N)CC(C#N)Nc2ccccc2N1` (centres undefined), for which the T/C runs as follows: (dose: 100.0 mg/kg/injection, schedule: Q01DX001 (ip), vehicle: saline) 104 % of control; (dose: 200.0 mg/kg/injection, schedule: Q01DX001 (ip), vehicle: saline) 91 % of control; (dose: 400.0 mg/kg/injection, schedule: Q01DX001 (ip), vehicle: saline) 100 % of control.

Turning to `C/C=C1\CN(C)[C@H]2Cc3c([nH]c4ccccc34)[C@@H](c3cc4[nH]c5c(c4cc3OC)CCN3C[C@H]4C[C@H](CC)[C@H]3[C@@]5(C(=O)OC)C4)C[C@H]1C2C(=O)OC` (some centres undefined), the T/C (dose: 5.0 mg/kg/injection, schedule: Q01DX010 (ip), vehicle: water) is 90 % of control; the T/C (dose: 10.0 mg/kg/injection, schedule: Q01DX010 (ip), vehicle: water) was 109 % of control; the T/C (dose: 20.0 mg/kg/injection, schedule: Q01DX010 (ip), vehicle: water) was 118 % of control.

With `CCOC(=O)c1c(N)c2cnn(C)c2[nH]c1=O`, the T/C is 100 % of control (dose: 100.0 mg/kg/injection, schedule: Q04DX002 (ip), vehicle: saline with Tween-80); 90 % of control (dose: 200.0 mg/kg/injection, schedule: Q04DX002 (ip), vehicle: saline with Tween-80); 90 % of control (dose: 400.0 mg/kg/injection, schedule: Q04DX002 (ip), vehicle: saline with Tween-80).

In the case of `COC(=O)c1cc(=O)nc(NN=C(C)C)s1`, the T/C is 91 % of control under setting [9] and 100 % of control under setting [10].

As to `COC(=O)CC12CC3(C)CC(C)(C1)CC(CC(=O)OC)(C3)C2`, the T/C under setting [12] is 102 % of control, the T/C under setting [13] was 102 % of control and the T/C under setting [14] is 117 % of control.

Turning to `O=C1CN(c2ccccc2)CC(=O)N2CCCN12`, the T/C was 92 % of control under setting [9] and 88 % of control under setting [11].

Regarding `C=C/C=C/CCC(=O)C=[N+]=[N-]`, the T/C under setting [9] is 91 % of control, the T/C under setting [10] was 97 % of control and the T/C under setting [11] was 101 % of control.

`Cc1cc(=O)c2c(C)cccc2[nH]1`: the T/C was 104 % of control (dose: 6.25 mg/kg/injection, schedule: Q04DX003 (ip), vehicle: saline sonified); 109 % of control (dose: 12.5 mg/kg/injection, schedule: Q04DX003 (ip), vehicle: saline sonified); 113 % of control (dose: 25.0 mg/kg/injection, schedule: Q01DX009 (ip), vehicle: saline with Tween-80); 100 % of control (dose: 25.0 mg/kg/injection, schedule: Q04DX003 (ip), vehicle: saline sonified).

With `c1ccc(-c2nnn(-c3ccccc3)n2)cc1`, the T/C is, setting by setting: under setting [12], 93 % of control; under setting [14], 93 % of control.

For `Cc1ccc2c(ccc(C)[n+]2C)c1`, the T/C runs as follows: (dose: 67.0 mg/kg/injection, schedule: Q01DX009 (ip), vehicle: saline) 183 % of control; under setting [8], 150 % of control.

`O=C(OCCCl)c1ccc(Cl)cc1`: the T/C (dose: 50.0 mg/kg/injection, schedule: Q04DX003 (ip), vehicle: saline with Tween-80) was 108 % of control; the T/C (dose: 100.0 mg/kg/injection, schedule: Q04DX003 (ip), vehicle: saline with Tween-80) is 100 % of control; the T/C (dose: 200.0 mg/kg/injection, schedule: Q04DX003 (ip), vehicle: saline with Tween-80) was 94 % of control; the T/C (dose: 400.0 mg/kg/injection, schedule: Q04DX003 (ip), vehicle: saline with Tween-80) was 94 % of control.

On to `Cc1ccc(N(N)c2ccc(C)cc2)cc1`, for which the T/C under setting [15] was 100 % of control; the T/C (dose: 50.0 mg/kg/injection, schedule: Q04DX003 (ip), vehicle: Klucel (hydroxypropylcellulose) (HPC)) was 107 % of control; the T/C under setting [2] is 118 % of control; the T/C under setting [3] is 107 % of control; the T/C under setting [4] is 113 % of control; the T/C under setting [5] is 100 % of control.
